Test results as given in article PMC12091851, “Replacing a Cereblon Ligand by a DDB1 and CUL4 Associated Factor 11 (DCAF11) Recruiter Converts a Selective Histone Deacetylase 6 PROTAC into a Pan‐Degrader” (Chemmedchem, 2025).

Columns and labels:
HDAC6 = molecular target: T1, HDAC6 (Homo sapiens, UniProt Q9UBN7); assay: HDAC enzyme inhibition assay; type: biochemical; design: purchased BPS Bioscience 50006
T1 sequence (Q9UBN7 1-1215): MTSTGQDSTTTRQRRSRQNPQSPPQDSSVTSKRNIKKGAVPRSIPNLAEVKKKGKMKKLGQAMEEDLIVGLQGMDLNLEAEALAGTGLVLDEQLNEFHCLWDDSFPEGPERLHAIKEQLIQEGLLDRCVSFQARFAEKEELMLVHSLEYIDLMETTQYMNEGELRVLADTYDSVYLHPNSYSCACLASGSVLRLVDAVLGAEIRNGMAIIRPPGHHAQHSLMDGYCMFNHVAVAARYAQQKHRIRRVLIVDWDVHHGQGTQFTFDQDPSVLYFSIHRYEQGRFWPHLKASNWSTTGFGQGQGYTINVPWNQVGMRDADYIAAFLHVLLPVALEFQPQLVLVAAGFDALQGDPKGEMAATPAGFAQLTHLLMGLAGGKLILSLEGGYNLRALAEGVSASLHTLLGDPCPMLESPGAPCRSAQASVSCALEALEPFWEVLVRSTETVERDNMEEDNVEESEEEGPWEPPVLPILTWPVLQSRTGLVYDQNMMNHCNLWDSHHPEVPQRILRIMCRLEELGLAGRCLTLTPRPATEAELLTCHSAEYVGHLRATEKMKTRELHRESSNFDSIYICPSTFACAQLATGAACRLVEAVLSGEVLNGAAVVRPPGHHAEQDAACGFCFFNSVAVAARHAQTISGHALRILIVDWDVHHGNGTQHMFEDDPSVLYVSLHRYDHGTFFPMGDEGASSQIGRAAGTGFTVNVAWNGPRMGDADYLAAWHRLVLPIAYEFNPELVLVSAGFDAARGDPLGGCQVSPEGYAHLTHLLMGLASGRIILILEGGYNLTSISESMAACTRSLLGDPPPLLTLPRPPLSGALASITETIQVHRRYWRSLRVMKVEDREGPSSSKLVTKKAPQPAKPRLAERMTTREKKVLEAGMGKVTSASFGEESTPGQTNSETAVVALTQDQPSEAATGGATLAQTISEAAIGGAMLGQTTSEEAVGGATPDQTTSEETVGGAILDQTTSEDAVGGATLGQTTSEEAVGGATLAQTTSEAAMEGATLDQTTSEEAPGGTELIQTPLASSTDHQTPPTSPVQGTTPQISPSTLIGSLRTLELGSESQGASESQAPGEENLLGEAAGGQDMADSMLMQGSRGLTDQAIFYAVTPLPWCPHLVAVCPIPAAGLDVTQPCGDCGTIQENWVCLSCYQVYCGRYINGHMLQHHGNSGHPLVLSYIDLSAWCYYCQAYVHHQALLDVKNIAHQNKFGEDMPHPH
Method: (§1) Bio-Rad) to Immobilon-FL PVDF membranes (Catalog# IPFL00005, Mill ipore Merck, Burlington, MA, USA) at 1.0 A for 30 min and treated with 5% milk-powder solution for 1 h at room temperature […]
(§2) Signaling Technology) antibody solutions in 1:1000 –1:8000 dilutions at 4 °C overnight. […]
(§3) Significance testing was performed with a one -way analysis of variance (ANOVA). Dunnett’s post -hoc test was employed to obtain significance levels of each mean compared to a reference mean value.
(§4) 2.7. HDAC Enzyme Inhibition Assay […]
(§5) [4] For test compounds and controls, serial dilutions of the respective DMSO stock solution in DMSO were prepared, and 1.0 μL /well of this serial dilution were transferred […]
(§6) into OptiPlate-96 black microplates (PerkinElmer, Waltham, […], USA). A volume of 4 µL/well assay […]
(§7) BSA) was added. In the case of HDAC1, 2, and 6, a volume of 35 μL/well of the fluorogenic substrate […]
(§8) The total assay volume of 50 μL (max. 2 % DMSO) was incubated at 37 °C for 90 min. Subsequently, 50 μL /well of trypsin (0.4 mg/mL) in trypsin buffer (50 mM Tris−HCl, pH 8.0, 100 mM NaCl) was added, followed by additional 30 min of incubation at […]
(§9) OPTIMA microplate reader (BMG labtech, Ortenburg, Germany). The half maximal inhibitory concentration (IC50) was determined by plotting dose response curves and nonlinear regression with GraphPad Prism (GraphPad Software).
(§10) 2.8. MTT Cell Viability Assay […]

HDAC2 = HDAC2 (Homo sapiens, UniProt Q92769); assay: HDAC enzyme inhibition assay; type: biochemical; design: purchased BPS Bioscience 50052
HDAC2, sequence (Q92769 whole entry): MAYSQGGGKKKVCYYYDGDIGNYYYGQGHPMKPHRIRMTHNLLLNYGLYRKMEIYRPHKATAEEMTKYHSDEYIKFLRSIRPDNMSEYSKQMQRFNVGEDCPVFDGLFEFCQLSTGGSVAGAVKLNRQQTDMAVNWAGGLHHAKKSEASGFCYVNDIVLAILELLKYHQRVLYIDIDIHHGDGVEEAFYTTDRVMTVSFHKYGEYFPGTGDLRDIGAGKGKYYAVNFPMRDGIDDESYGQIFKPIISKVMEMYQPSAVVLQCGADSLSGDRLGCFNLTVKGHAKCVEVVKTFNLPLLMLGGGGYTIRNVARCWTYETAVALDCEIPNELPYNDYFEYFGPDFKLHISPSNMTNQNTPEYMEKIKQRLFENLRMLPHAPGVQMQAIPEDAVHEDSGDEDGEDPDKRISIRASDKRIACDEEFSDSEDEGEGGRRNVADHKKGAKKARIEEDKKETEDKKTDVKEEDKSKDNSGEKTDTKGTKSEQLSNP
Method: as §1, §2, §3, §4, §5, §6, §7, §8, §9, §10

O=C(CCCCCCNC(=O)c1ccc(N(C(=O)CCl)C(C(=O)NCc2ccccc2)c2ccc(Cl)c(Cl)c2)cc1)NO (stereo not shown) [Compound 2]
IC50 (HDAC6): 7 ± 1 nM | IC50 (HDAC2): 298 ± 11 nM

O=C(CCCCCCNC(=O)c1ccc(NC(=O)CCCCCCCCCCCN(C(=O)CCl)C(C(=O)NCc2ccccc2)c2ccc(Cl)c(Cl)c2)cc1)NO (stereo not shown) [Compound 1j]
IC50 (HDAC6): 53 ± 1 nM | IC50 (HDAC2): 2150 ± 110 nM
